Experiment: refractive index (Na D-line) (dimensionless); xn = mol fraction of the nth substance listed
Conditions: 101 kPa, Liquid, Standard Abbe refractometry

CCCCn1cc[n+](C)c1.F[B-](F)(F)F [1-butyl-3-methylimidazolium tetrafluoroborate] + CO
refractive index
Conditions	288.15 K	298.15 K	308.15 K	318.15 K
x1 = 0.0113	1.337	1.3325	1.3285	1.3246
x1 = 0.0235	1.3428	1.3381	1.3343	1.3305
x1 = 0.0366	1.3481	1.3435	1.3398	1.3365
x1 = 0.0509	1.3539	1.3488	1.3453	1.3419
x1 = 0.0845	1.364	1.3595	1.3562	1.3536
x1 = 0.1254	1.3729	1.369	1.3657	1.3629
x1 = 0.1771	1.3827	1.3788	1.3754	1.3726
x1 = 0.2441	1.3912	1.3877	1.3845	1.3813
x1 = 0.3338	1.3999	1.3966	1.3934	1.3904
x1 = 0.4626	1.4082	1.4052	1.4022	1.3993
x1 = 0.5482	1.4123	1.4093	1.4064	1.4036
x1 = 0.6589	1.4163	1.4135	1.4107	1.408
x1 = 0.8037	1.4204	1.4177	1.415	1.4124
x1 = 1	1.4243	1.4217	1.419	1.4164

CCn1cc[n+](C)c1.F[B-](F)(F)F [1-ethyl-3-methylimidazolium tetrafluoroborate] + CO
refractive index
Conditions	288.15 K	298.15 K	308.15 K	318.15 K
x1 = 0.0136	1.3368	1.3324	1.3286	1.3247
x1 = 0.0283	1.3419	1.3376	1.3337	1.33
x1 = 0.044	1.3466	1.3423	1.3389	1.3357
x1 = 0.0615	1.3515	1.3474	1.3439	1.3402
x1 = 0.101	1.3604	1.3566	1.353	1.3495
x1 = 0.1485	1.3697	1.3659	1.3627	1.3592
x1 = 0.2073	1.3785	1.3749	1.3715	1.3685
x1 = 0.2817	1.3865	1.383	1.38	1.3768
x1 = 0.379	1.3937	1.3905	1.3874	1.3845
x1 = 0.5111	1.4008	1.3978	1.3949	1.3922
x1 = 0.5959	1.404	1.4012	1.3985	1.3958
x1 = 0.7027	1.4075	1.4048	1.4022	1.3996
x1 = 0.8297	1.4109	1.4082	1.4056	1.4031
x1 = 1	1.4143	1.4118	1.4092	1.4067
